Read-outs that look alike come from different tables or passages of the source.
Legend:
[1] = In vitro metabolic stability in human plasma; type: in vitro ADME; conditions: human, plasma, 37° C., 10 μM compound, read-out: Human plasma T1/2
Method in brief: (§1)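 Human or rat plasma, preincubated 5 min at 37 °C, or intestinal S9 at 37 °C, spiked from 1 mM stock; triplicates sampled at 1, 2, 5, 15 and 30 min into cold internal standard. HPLC quantitation; half-life by non-compartmental analysis.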

[2] = In vitro metabolic stability in human intestine S9; type: in vitro ADME; conditions: human, intestinal S9; 37° C., 10 μM compound, 1 mg/mL S9, NADPH regeneration system; read-out: Human intestine S9 T1/2
Method in brief: as §1

[3] = In vitro metabolic stability in rat plasma; type: in vitro ADME; conditions: rat, plasma, 37° C., 10 μM compound, read-out: Rat plasma T1/2
Method in brief: as §1

[4] = In vitro metabolic stability in rat intestine S9; type: in vitro ADME; conditions: rat, intestinal S9, pH 7.4; 37° C., 10 μM compound, 1 mg/mL S9, NADPH regeneration system; read-out: Rat intestine S9 T1/2
Method in brief: as §1

[5] = Solid stability test (stability chamber, HPLC total impurity); type: physicochemical
[6] = test system: Candida albicans ATCC10231; experiment: Candida albicans vaginitis in mice, intragastric administration; type: in vivo, KM mice; conditions: logarithm of the CFU values, mean ± SD of 20 mice, 20 mg/kg intragastric once a day
[7] = test system: Candida albicans ATCC10231; experiment: Systemic fungal infection in mice, intravenous administration; type: in vivo, ICR mice
[8] = test system: Candida albicans ATCC10231; experiment: Systemic fungal infection in mice, intragastric administration; type: in vivo, ICR mice; conditions: Candida albicans, ATCC10231, po
[9] = test system: Aspergillus Fumigutus (AF) strains; experiment: Aspergillus fumigatus keratitis in rats, intravenous administration; conditions: 10 mg/kg tail vein once daily for 5 days; mean ± SD of 10 rats
[10] = Determination of solubility in deionized water (HPLC, external standard); conditions: 25 °C, water, thermodynamic from solid
[11] = test system: Aspergillus fumigatus AF293; experiment: Lung Aspergillus fumigatus infection in immunosuppressed mice, intravenous administration; conditions: for responders at 20 mg/kg: Aspergillus fumigatus, AF293, in Mus musculus, iv
Experimental: ICR male mice were injected intraperitoneally with cyclophosphamide 150 mg/kg and injected subcutaneously with dexamethasone 150 mg/kg for 10 consecutive days. At the same time, the blood was taken to measure the changes of peripheral white blood cells and neutrophils, and mice with neutrophils consistently lower than 100/μl were selected as successfully immunosuppressed mice. Immediately after the last injection, the mice were anesthetized with ethyl ether, and mice were transferred from the initial state of excitement to inhibition. After their bodies were relaxed, the mice were immediately taken. Left hand was used to grasp the mouse to make it stand upright, the middle finger pressed the mouth so that it could breath only with the nose, and the ring finger gently pressed the abdomen to move the diaphragm muscle upward. 30 μl of conidia suspension (Aspergillus fumigatus AF293, 3×10^6 conidia) was sent to the nostrils of the anesthetized mice by a micropipette to allow spontaneous inhalation. After the mouse returned to normal breathing, it was returned to the cage. […] The death of the mice was observed and the survival time was recorded. Seven days later, the mice were sacrificed and their lung tissues were taken to observe the fungal loads of Aspergillus fumigatus in the lungs of the mice.

CC[C@@H]([C@H](C)O)n1ncn(-c2ccc(N3CCN(c4ccc(OC[C@@H]5CO[C@@](Cn6c[n+](C(C)OC(=O)N(C)c7ncccc7COC(=O)CN)cn6)(c6ccc(F)cc6F)C5)cc4)CC3)cc2)c1=O (stereo partly drawn) [ST0002]
half-life at 10 µM [1]: 0.78 ± 0.15 min
half-life at 10 µM [2]: 14.9 ± 3.56 min
half-life at 10 µM [3]: 1.12 ± 0.35 min
half-life at 10 µM [4]: 18.5 ± 4.56 min
Total impurity increment in 30 days [5]: 0.63%
vaginal fungal load of mice, day 3 ([6]; day 3): 4.18 ± 0.22
vaginal fungal load of mice, day 5 ([6]; day 5): 4.35 ± 0.41
vaginal fungal load of mice, day 7 ([6]; day 7): 3.97 ± 0.47
vaginal fungal load of mice, day 11 ([6]; day 11): 3.05 ± 0.27
responders at 20 mg/kg ([7]; 24 h, read-out: survival rate of mice, day 1): 100%
responders at 20 mg/kg ([7]; 48 h, read-out: survival rate of mice, day 2): 100%
responders at 20 mg/kg ([7]; 72 h, read-out: survival rate of mice, day 3): 100%
responders at 20 mg/kg ([7]; 96 h, read-out: survival rate of mice, day 4): 100%
responders at 20 mg/kg ([7]; 120 h, read-out: survival rate of mice, day 5): 100%
responders at 20 mg/kg ([7]; 144 h, read-out: survival rate of mice, day 6): 90%
responders at 20 mg/kg ([7]; 168 h, read-out: survival rate of mice, day 7): 90%
responders at 20 mg/kg ([8]; 24 h, read-out: survival rate of mice, day 1, 20 mg/kg intragastric once daily for 5 days, day 1): 100%
responders at 20 mg/kg ([8]; 48 h, read-out: survival rate of mice, day 2, 20 mg/kg intragastric once daily for 5 days, day 2): 100%
responders at 20 mg/kg ([8]; 72 h, read-out: survival rate of mice, day 3, 20 mg/kg intragastric once daily for 5 days, day 3): 90%
responders at 20 mg/kg ([8]; 96 h, read-out: survival rate of mice, day 4, 20 mg/kg intragastric once daily for 5 days, day 4): 80%
responders at 20 mg/kg ([8]; 120 h, read-out: survival rate of mice, day 5, 20 mg/kg intragastric once daily for 5 days, day 5): 80%
responders at 20 mg/kg ([8]; 144 h, read-out: survival rate of mice, day 6, 20 mg/kg intragastric once daily for 5 days, day 6): 70%
responders at 20 mg/kg ([8]; 168 h, read-out: survival rate of mice, day 7, 20 mg/kg intragastric once daily for 5 days, day 7): 70%
Amount of active fungi in cornea at day 7 [9]: 2.37 ± 0.49 10^3 CFU/ml
solubility at 30 min [10]: 30.8 mg/mL
responders at 20 mg/kg ([11]; 24 h, read-out: survival rate of mice, day 1, 20 mg/kg tail vein once daily for 5 days, day 1): 100%
responders at 20 mg/kg ([11]; 48 h, read-out: survival rate of mice, day 2, 20 mg/kg tail vein once daily for 5 days, day 2): 100%
responders at 20 mg/kg ([11]; 72 h, read-out: survival rate of mice, day 3, 20 mg/kg tail vein once daily for 5 days, day 3): 100%
responders at 20 mg/kg ([11]; 96 h, read-out: survival rate of mice, day 4, 20 mg/kg tail vein once daily for 5 days, day 4): 100%
responders at 20 mg/kg ([11]; 120 h, read-out: survival rate of mice, day 5, 20 mg/kg tail vein once daily for 5 days, day 5): 90%
responders at 20 mg/kg ([11]; 144 h, read-out: survival rate of mice, day 6, 20 mg/kg tail vein once daily for 5 days, day 6): 90%
responders at 20 mg/kg ([11]; 168 h, read-out: survival rate of mice, day 7, 20 mg/kg tail vein once daily for 5 days, day 7): 80%
lung fungal load ([11]; mouse lung tissue, seven days later, 20 mg/kg tail vein once daily for 5 days, mean ± SD): 1.89 ± 0.22 10^4 CFU/ml

Source: patent publication US10517867B2, “Posaconazole derivative, pharmaceutical composition and use thereof” (priority 2016, dated 2019)
